± gives the uncertainty stated by the source.
Test: xn = mol fraction of the nth substance listed

Compound: O=[N+]([O-])[O-].[K+] + O
- viscosity (293.15 K, 101.3 kPa, x1 = 0.0009): 0.999 ± 0.021 mPa·s
- viscosity (293.15 K, 101.3 kPa, x1 = 0.0018): 0.9967 ± 0.021 mPa·s
- viscosity (293.15 K, 101.3 kPa, x1 = 0.00893): 0.9784 ± 0.021 mPa·s
- viscosity (293.15 K, 101.3 kPa, x1 = 0.0177): 0.9678 ± 0.021 mPa·s
- viscosity (293.15 K, 101.3 kPa, x1 = 0.0431): 0.9855 ± 0.021 mPa·s
- viscosity (293.15 K, 101.3 kPa, x1 = 0.05127): 1.002 ± 0.021 mPa·s
- viscosity (298.15 K, 101.3 kPa, x1 = 0.0018): 0.887 ± 0.019 mPa·s
- viscosity (298.15 K, 101.3 kPa, x1 = 0.00893): 0.875 ± 0.019 mPa·s
- viscosity (298.15 K, 101.3 kPa, x1 = 0.03478): 0.8802 ± 0.019 mPa·s
- viscosity (298.15 K, 101.3 kPa, x1 = 0.0431): 0.8927 ± 0.019 mPa·s
- viscosity (298.15 K, 101.3 kPa, x1 = 0.05127): 0.9095 ± 0.019 mPa·s
- viscosity (303.15 K, 101.3 kPa, x1 = 0.0009): 0.7964 ± 0.017 mPa·s
- viscosity (303.15 K, 101.3 kPa, x1 = 0.0018): 0.7957 ± 0.017 mPa·s
- viscosity (303.15 K, 101.3 kPa, x1 = 0.00893): 0.7884 ± 0.017 mPa·s
- viscosity (303.15 K, 101.3 kPa, x1 = 0.0177): 0.7866 ± 0.017 mPa·s
- viscosity (303.15 K, 101.3 kPa, x1 = 0.02631): 0.791 ± 0.017 mPa·s
- viscosity (303.15 K, 101.3 kPa, x1 = 0.03478): 0.8004 ± 0.017 mPa·s
- viscosity (303.15 K, 101.3 kPa, x1 = 0.0431): 0.8138 ± 0.017 mPa·s
- viscosity (303.15 K, 101.3 kPa, x1 = 0.05127): 0.8319 ± 0.018 mPa·s
- viscosity (308.15 K, 101.3 kPa, x1 = 0.0009): 0.7193 ± 0.015 mPa·s
- viscosity (308.15 K, 101.3 kPa, x1 = 0.0018): 0.7184 ± 0.015 mPa·s
- viscosity (308.15 K, 101.3 kPa, x1 = 0.00893): 0.7156 ± 0.015 mPa·s
- viscosity (308.15 K, 101.3 kPa, x1 = 0.0177): 0.7174 ± 0.015 mPa·s
- viscosity (308.15 K, 101.3 kPa, x1 = 0.02631): 0.7235 ± 0.015 mPa·s
- viscosity (308.15 K, 101.3 kPa, x1 = 0.03478): 0.7334 ± 0.015 mPa·s
- viscosity (308.15 K, 101.3 kPa, x1 = 0.05127): 0.7636 ± 0.016 mPa·s
- viscosity (318.15 K, 101.3 kPa, x1 = 0.0009): 0.5964 ± 0.013 mPa·s
- viscosity (318.15 K, 101.3 kPa, x1 = 0.0018): 0.5967 ± 0.013 mPa·s
- viscosity (318.15 K, 101.3 kPa, x1 = 0.00893): 0.5993 ± 0.013 mPa·s
- viscosity (318.15 K, 101.3 kPa, x1 = 0.0177): 0.6038 ± 0.013 mPa·s
- viscosity (318.15 K, 101.3 kPa, x1 = 0.02631): 0.6128 ± 0.013 mPa·s
- viscosity (318.15 K, 101.3 kPa, x1 = 0.0431): 0.6376 ± 0.013 mPa·s
- viscosity (318.15 K, 101.3 kPa, x1 = 0.05127): 0.6543 ± 0.014 mPa·s
- viscosity (323.15 K, 101 kPa, x1 = 0.02): 0.565 ± 0.014 mPa·s

Compound: Cc1cccc([N+](=O)[O-])c1 + Cc1ccccc1C
- viscosity (308.15 K, 101.33 kPa, x2 = 0.1044): 1.384 ± 0.009 mPa·s
- viscosity (308.15 K, 101.33 kPa, x2 = 0.2068): 1.211 ± 0.008 mPa·s
- viscosity (308.15 K, 101.33 kPa, x2 = 0.2995): 1.102 ± 0.007 mPa·s
- viscosity (308.15 K, 101.33 kPa, x2 = 0.4028): 1.01 ± 0.007 mPa·s
- viscosity (308.15 K, 101.33 kPa, x2 = 0.5015): 0.944 ± 0.006 mPa·s
- viscosity (308.15 K, 101.33 kPa, x2 = 0.6123): 0.867 ± 0.006 mPa·s
- viscosity (308.15 K, 101.33 kPa, x2 = 0.7055): 0.81 ± 0.005 mPa·s
- viscosity (308.15 K, 101.33 kPa, x2 = 0.8268): 0.742 ± 0.005 mPa·s
- viscosity (308.15 K, 101.33 kPa, x2 = 0.9132): 0.698 ± 0.005 mPa·s

Compound: CC1CCCCC1 + C1CCOC1
- viscosity (303.15 K, 101.33 kPa, x2 = 0.111): 0.604 ± 0.005 mPa·s
- viscosity (303.15 K, 101.33 kPa, x2 = 0.2072): 0.576 ± 0.005 mPa·s
- viscosity (303.15 K, 101.33 kPa, x2 = 0.3062): 0.548 ± 0.005 mPa·s
- viscosity (303.15 K, 101.33 kPa, x2 = 0.404): 0.525 ± 0.005 mPa·s
- viscosity (303.15 K, 101.33 kPa, x2 = 0.4829): 0.507 ± 0.005 mPa·s
- viscosity (303.15 K, 101.33 kPa, x2 = 0.504): 0.503 ± 0.005 mPa·s
- viscosity (303.15 K, 101.33 kPa, x2 = 0.6018): 0.487 ± 0.005 mPa·s
- viscosity (303.15 K, 101.33 kPa, x2 = 0.7067): 0.47 ± 0.004 mPa·s
- viscosity (303.15 K, 101.33 kPa, x2 = 0.9006): 0.447 ± 0.004 mPa·s

From the CheMixHub viscosity set
